Reference: patent US20060211697A1, “2-(2 Or 4-substituted aryloxy)-phenol derivatives as antibacterial agents” (priority 2004, published 2006)
≈ marks a conversion by molar mass, not a printed value.

How the values were obtained:
[1] = tested on: S. pneumoniae 11733; experiment: MIC, broth dilution method, S. pneumoniae; type: cell-based; settings: Streptococcus pneumoniae, 11733; Gram-positive bacteria; in vitro, broth dilution; read-out: MIC S. pneumoniae 11733
Protocol: (§1) Minimum Inhibition Concentration (MIC), Broth Dilution Method:
(§2) The compounds of the present invention were tested against an assortment of Gram positive and Gram negative organisms using standard microtitration techniques well known to those skilled in the art. Cultures of bacteria are initially brought up from the freezer by streaking a loopful onto agar plates under the appropriate conditions. For instance bacterial stocks are streaked onto chocolate agar and then incubated for 18 hours at 35-37° C. in a 5% CO2 incubator. Five to ten colonies are picked from the chocolate agar plate for subculture to Brain-Heart infusion (BHI) broth, Mueller Hinton broth, or BHI containing 4% serum and incubated under the appropriate conditions. The ability of the test compound to act as an antimicrobial is determined by the ability to inhibit bacterial growth in vitro. The optical density of the culture of organisms in the presence of an active compound is compared to the optical density of the same organism untreated. The activity of the compounds is described as either negative or the lowest concentration inhibiting growth (Minimum Inhibitory Concentration [MIC]).

[2] = tested on: S. aureus 29213; experiment: MIC, broth dilution method, S. aureus; type: cell-based; settings: Staphylococcus aureus, 29213; Gram-positive bacteria; in vitro, broth dilution; read-out: MIC S. aureus 29213
Protocol: as §1, §2

[3] = tested on: H. influenzae 43095; experiment: MIC, broth dilution method, H. influenzae; type: cell-based; settings: Haemophilus influenzae, 43095; Gram-negative bacteria; in vitro, broth dilution; read-out: MIC H. influenzae 43095
Protocol: as §1, §2

[4] = tested on: E. coli 43888; experiment: MIC, broth dilution method, E. coli; type: cell-based; settings: Escherichia coli, 43888; Gram-negative bacteria; in vitro, broth dilution; read-out: MIC E. coli 43888
Protocol: as §1, §2

| SMILES | MIC [1] [mg/L] | MIC [2] [mg/L] | MIC [3] [mg/L] | MIC [4] [mg/L] | melting point |
| --- | --- | --- | --- | --- | --- |
| Cc1ccc(Oc2ccc(-c3cccs3)cc2O)c(O)c1 [Example 3, 2-(2-Hydroxy-4-methyl-phenoxy)-5-(thiophen-2-yl)-phenol] | 1 (≈ 3.35 µM) | 4 (≈ 13.4 µM) | 4 (≈ 13.4 µM) | 15.7 (≈ 52.6 µM) | 91 to 92 °C |
| Cc1ccc(Oc2ccccc2-c2nnn[nH]2)c(O)c1 [Example 14, 5-Methyl-2-[2-(1H-tetrazol-5-yl)-phenoxy]-phenol and 5-methyl-2-[2-(2H-tetrazol-5-yl)-phenoxy]-phenol] | 2 (≈ 7.46 µM) | 0.002 (≈ 0.00746 µM) | 0.125 (≈ 0.466 µM) | 0.125 (≈ 0.466 µM) | 205 to 207 °C |
| Cc1ccc(Oc2ccc(-c3nnc(N)s3)cc2)c(O)c1 [Example 23, 2-[4-(5-Amino-[1,3,4]thiadiazol-2-yl)-phenoxy]-5-methyl-phenol] | 12.5 (≈ 41.8 µM) | 1.6 (≈ 5.34 µM) | > 25 | 25 (≈ 83.5 µM) | 240 to 243 °C (dec.) |
| Cc1ccc(Oc2ccc(C3NC(C(=O)O)CS3)cc2)c(O)c1 (centres unmarked) [Example 7, 2-[4-(2-Hydroxy-4-methyl-phenoxy)-phenyl]-thiazolidine-4-carboxylic acid] | 1 (≈ 3.02 µM) | 0.25 (≈ 0.754 µM) | 1 (≈ 3.02 µM) | 4 (≈ 12.1 µM) | 172 to 174 °C (dec.) |
| Oc1ccccc1Oc1ccc(-c2ccsc2)cc1O [Example 1, 2-(2-Hydroxy-phenoxy)-5-(thiophen-3-yl)-phenol] | 2 (≈ 7.03 µM) | 4 (≈ 14.1 µM) | 2 (≈ 7.03 µM) | 15.7 (≈ 55.2 µM) | 114 to 116 °C |
| Cc1ccc(Oc2ccc(-c3nnn[nH]3)cc2)c(O)c1 [Example 13, 5-Methyl-2-[4-(1H-tetrazol-5-yl)-phenoxy]-phenol and 5-methyl-2-[4-(2H-tetrazol-5-yl)-phenoxy]-phenol] | 7.9 (≈ 29.4 µM) | 7.9 (≈ 29.4 µM) | 2 (≈ 7.46 µM) | 62.5 (≈ 233 µM) | 173 to 175 °C |
| Cc1ccc(Oc2ccc(C3NCCS3)cc2)c(O)c1 (centres unmarked) [Example 5, 5-Methyl-2-[4-(thiazolidin-2-yl)-phenoxy]-phenol] | 4 (≈ 13.9 µM) | 0.5 (≈ 1.74 µM) | 0.125 (≈ 0.435 µM) | 4 (≈ 13.9 µM) | 197 to 199 °C |
